Reference: ChEMBL document CHEMBL1681657, “P3 optimization of functional potency, in vivo efficacy and oral bioavailability in 3-aminopyrazinone thrombin inhibitors bearing non-charged groups at the P1 position” (Bioorg Med Chem Lett, 2011)
Active and inactive are the calls of the source. No cut-off for these calls is given here.

Legend:
Rattus norvegicus = assay: Anticoagulant activity in iv dosed ferric chloride-induced thrombosis rat model assessed as protection against thrombotic occlusion; assay type: functional, organism-based
[1] = Anticoagulant activity in human […] assessed as concentration required to double activated partial […] time; assay type: functional
Prothrombin = Prothrombin (Homo sapiens, UniProt P00734); assay: Inhibition of thrombin
[2] = Inhibition of trypsin
[3] = Fraction unbound in human plasma; assay type: ADME, cell-free
[4] = Cmax in rat at 10 mg/kg, po; assay type: ADME, organism-based; parameters: dose 10 mg/kg, route oral; conditions: in vivo
[5] = Half life in rat at 10 mg/kg, po; assay type: ADME, organism-based; parameters: dose 10 mg/kg, route oral; conditions: in vivo
[6] = Half life in dog at 1 mg/kg, po; assay type: ADME, organism-based, Canis lupus familiaris; parameters: dose 1 mg/kg, route oral; conditions: in vivo
[7] = Cmax in dog at 1 mg/kg, po; assay type: ADME, organism-based, Canis lupus familiaris; parameters: dose 1 mg/kg, route oral; conditions: in vivo

COc1ccc(Cl)cc1CNC(=O)Cn1c(C)cnc(NCCC2CCCCN2)c1=O (racemic)
Activity (Rattus norvegicus): Active
Activity [1]: 0.65 µM
Ki (Prothrombin): 4.8 nM
Ki [2]: 58.9 µM

COc1ccc(Cl)cc1CNC(=O)Cn1c(Cl)cnc(NCCc2cccc[n+]2[O-])c1=O
Activity [1]: 0.67 µM
Ki (Prothrombin): 1.8 nM
Ki [2]: 64 µM

COc1ccc(C#N)c(CNC(=O)Cn2c(Cl)cnc(NCCc3ccccn3)c2=O)c1
Activity [1]: 0.83 µM
Ki (Prothrombin): 1.5 nM
Ki [2]: > 100 µM

Cc1ccc(Cl)cc1CNC(=O)Cn1c(C)cnc(NCCC2CCCCN2)c1=O (racemic)
Activity (Rattus norvegicus): Active
Activity [1]: 0.44 µM
Ki (Prothrombin): 2.3 nM
Ki [2]: 38 µM

NC(C(=O)N1CCC[C@H]1C(=O)NCc1cc(Cl)ccc1OCC(=O)NC1CC1)C1CCCCC1 (single isomer, unassigned)
fraction unbound [3]: 0.12
Activity [1]: 0.42 µM

Cc1ccc(OCC(F)(F)F)c(CNC(=O)Cn2c(C)cnc(NCCc3ccccn3)c2=O)c1
Activity [1]: 0.89 µM
Ki (Prothrombin): 1.5 nM
Ki [2]: 91 µM

Cc1cnc(NCCc2ccccn2)c(=O)n1CC(=O)NCc1cc(Cl)ccc1Cl
Activity [1]: 0.98 µM
Ki (Prothrombin): 0.75 nM
Ki [2]: 52 µM

Cc1cnc(NCCc2ccccn2)c(=O)n1CC(=O)NCc1cc(Cl)ccc1OCC(F)(F)F
Cmax [4]: 1060 nM
half-life [5]: 1.95 h
Activity [1]: 0.79 µM
Ki (Prothrombin): 0.5 nM
half-life [6]: 1.3 h
Cmax [7]: 3240 nM
Ki [2]: 32 µM

Cc1cnc(NCCc2ccccn2)c(=O)n1CC(=O)NCc1cccc(Cl)c1
fraction unbound [3]: 0.06
Cmax [4]: 2980 nM
half-life [5]: 1 h
Activity [1]: 1.01 µM
Ki (Prothrombin): 3 nM
half-life [6]: 0.867 h
Cmax [7]: 2820 nM
Ki [2]: 37 µM

COc1ccc(C)cc1CNC(=O)Cn1c(C)cnc(NCCc2ccccn2)c1=O
Activity [1]: 2.9 µM
Ki (Prothrombin): 8 nM
Ki [2]: 902 µM

O=C(Cn1c(Cl)cnc(NCCc2cccc[n+]2[O-])c1=O)NCc1cc(Cl)ccc1Cl
Activity [1]: 0.65 µM
Ki (Prothrombin): 0.76 nM
Ki [2]: 138 µM

Cc1cnc(NCCc2ccccn2)c(=O)n1CC(=O)NCc1cc(Cl)ccc1OCC(=O)NC1CC1
fraction unbound [3]: 0.01
Activity [1]: 0.45 µM
Ki (Prothrombin): 0.015 nM

COc1ccc(C#N)c(CNC(=O)Cn2c(Cl)cnc(NCCc3cccc[n+]3[O-])c2=O)c1
Activity [1]: 0.41 µM
Ki (Prothrombin): 1.1 nM
Ki [2]: 278 µM

COc1ccc(C#N)c(CNC(=O)Cn2c(C)cnc(NCCc3ccccn3)c2=O)c1
Cmax [4]: 2280 nM
half-life [5]: 2.08 h
Activity [1]: 0.72 µM
Ki (Prothrombin): 1.6 nM
half-life [6]: 1.47 h
Cmax [7]: 2260 nM
Ki [2]: > 1000 µM

COc1ccc(C#N)c(CNC(=O)Cn2c(C)cnc(NCCC3CCCCN3)c2=O)c1 (racemic)
Activity (Rattus norvegicus): Active
Activity [1]: 0.27 µM
Ki (Prothrombin): 1.8 nM
Ki [2]: 136 µM

Cc1ccc(C#N)c(CNC(=O)Cn2c(C)cnc(NCCc3ccccn3)c2=O)c1
Activity [1]: 0.56 µM
Ki (Prothrombin): 1.3 nM
half-life [6]: 0.85 h
Cmax [7]: 2300 nM
Ki [2]: 102 µM

Cc1ccc(Cl)cc1CNC(=O)Cn1c(Cl)cnc(NCCc2cccc[n+]2[O-])c1=O
Activity [1]: 0.69 µM
Ki (Prothrombin): 1.1 nM
Ki [2]: 94 µM

Cc1cnc(NCCc2ccccn2)c(=O)n1CC(=O)NCc1cc(Cl)ccc1OCC(=O)NC1CCCNC1 (centres undefined)
fraction unbound [3]: 0.12
Activity (Rattus norvegicus): Active
Activity [1]: 0.24 µM
Ki (Prothrombin): 0.125 nM

Cc1ccc(Cl)cc1CNC(=O)Cn1c(C)cnc(NCCc2ccccn2)c1=O
Cmax [4]: 1290 nM
half-life [5]: 3.67 h
Activity [1]: 0.87 µM
Ki (Prothrombin): 1.1 nM
half-life [6]: 1.18 h
Cmax [7]: 2520 nM
Ki [2]: > 50 µM

COc1ccc(Cl)cc1CNC(=O)Cn1c(C)cnc(NCCc2ccccn2)c1=O
Cmax [4]: 570 nM
half-life [5]: 3.73 h
Activity [1]: 1.05 µM
Ki (Prothrombin): 2 nM
half-life [6]: 1 h
Cmax [7]: 1480 nM
Ki [2]: 161 µM

O=C(Cn1c(Cl)cnc(NCCc2cccc[n+]2[O-])c1=O)NCc1cc(Cl)ccc1OCC(F)(F)F
Activity [1]: 0.6 µM
Ki (Prothrombin): 0.31 nM
Ki [2]: 17 µM
